Laboratory results: ChEMBL document CHEMBL5518187, “EGCG-like non-competitive inhibitor of DYRK1A rescues cognitive defect in a down syndrome model” (Eur J Med Chem, 2024)
Calls of active or inactive are those of the source. No cut-off for these calls is given here.

What was measured:
[1] = target: Dual specificity tyrosine-phosphorylation-regulated kinase 1A (Rattus norvegicus, UniProt Q63470); experiment: Inhibition of recombinant 6His-tagged rat DYRK1A (1 to 502 residues) expressed in Escherichia coli BL21 (DE3) cells using KISGRLSPIMTEQ as substrate incubated for 30 mins in presence of ATP by absorbance based assay
[2] = target: Dual specificity tyrosine-phosphorylation-regulated kinase 1A (Homo sapiens, UniProt Q13627); experiment: Inhibition of DYRK1A (unknown origin) using KISGRLSPIMTEQ as substrate incubated for 30 mins in presence of ATP by UFLC-based fluorimetric analysis
[3] = Drug concentration in wildtype mouse brain at 50 mg/kg by UHPLC-MS/MS analysis; type: ADME, organism-based; conditions: in vivo, read-out: Ct
[4] = target: Mitogen-activated protein kinase 1 (Homo sapiens) (UniProt P28482); experiment: Inhibition of ERK2 (unknown origin) at 0.5 uM
Mitogen-activated protein kinase 1 (Homo sapiens), sequence (P28482 whole entry): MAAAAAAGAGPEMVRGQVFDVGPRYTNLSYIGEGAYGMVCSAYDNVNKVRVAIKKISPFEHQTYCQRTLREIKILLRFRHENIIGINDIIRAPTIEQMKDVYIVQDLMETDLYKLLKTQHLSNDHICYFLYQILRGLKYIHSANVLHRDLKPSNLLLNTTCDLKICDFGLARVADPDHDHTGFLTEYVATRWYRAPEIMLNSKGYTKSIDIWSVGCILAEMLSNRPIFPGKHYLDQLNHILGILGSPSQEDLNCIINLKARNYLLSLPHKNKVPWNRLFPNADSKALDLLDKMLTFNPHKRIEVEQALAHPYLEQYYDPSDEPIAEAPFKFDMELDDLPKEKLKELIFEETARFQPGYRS

[5] = Drug concentration in brain of Dp1Yey C57BL/6J mouse model at 50 mg/kg by UHPLC-MS/MS analysis; type: ADME, organism-based; conditions: in vivo, read-out: Ct
[6] = target: Glycogen synthase kinase-3 beta (Homo sapiens) (UniProt P49841); experiment: Inhibition of GSK3beta (unknown origin) at 0.5 uM
Glycogen synthase kinase-3 beta (Homo sapiens), sequence (P49841 whole entry, looked up): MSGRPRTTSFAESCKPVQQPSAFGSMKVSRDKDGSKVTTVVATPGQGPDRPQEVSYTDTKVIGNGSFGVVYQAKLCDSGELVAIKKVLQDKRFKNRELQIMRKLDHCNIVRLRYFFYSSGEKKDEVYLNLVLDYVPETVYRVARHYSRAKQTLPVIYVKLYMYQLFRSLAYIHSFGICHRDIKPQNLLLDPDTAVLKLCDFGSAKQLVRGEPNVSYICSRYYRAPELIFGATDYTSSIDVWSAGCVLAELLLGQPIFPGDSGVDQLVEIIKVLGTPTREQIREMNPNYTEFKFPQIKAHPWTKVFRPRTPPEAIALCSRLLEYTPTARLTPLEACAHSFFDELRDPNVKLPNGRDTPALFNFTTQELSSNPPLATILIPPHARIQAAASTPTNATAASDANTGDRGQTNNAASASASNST

[7] = system: Mus musculus; experiment: In vivo inhibition of DYRK1A in C57BL/6J mouse model carrying murine BACtgDyrk1a assessed as decrease in phosphorylated ERK to ERK ratio in brain administered intraperitoneally and measured after 24 hrs; type: functional; conditions: route ip
[8] = system: Mus musculus; experiment: Cognitive enhancing effect in Dp1Yey C57BL/6J mouse model assessed as increase in percentage of spontaneous alternation at 40 mg/kg, po administered 5 days per week for 2 months by Y-maze test; type: functional, organism-based
[9] = target: Mitogen-activated protein kinase 3 (Homo sapiens) (UniProt P27361); experiment: Inhibition of ERK1 (unknown origin) at 0.5 uM
Mitogen-activated protein kinase 3 (Homo sapiens), sequence (P27361 whole entry): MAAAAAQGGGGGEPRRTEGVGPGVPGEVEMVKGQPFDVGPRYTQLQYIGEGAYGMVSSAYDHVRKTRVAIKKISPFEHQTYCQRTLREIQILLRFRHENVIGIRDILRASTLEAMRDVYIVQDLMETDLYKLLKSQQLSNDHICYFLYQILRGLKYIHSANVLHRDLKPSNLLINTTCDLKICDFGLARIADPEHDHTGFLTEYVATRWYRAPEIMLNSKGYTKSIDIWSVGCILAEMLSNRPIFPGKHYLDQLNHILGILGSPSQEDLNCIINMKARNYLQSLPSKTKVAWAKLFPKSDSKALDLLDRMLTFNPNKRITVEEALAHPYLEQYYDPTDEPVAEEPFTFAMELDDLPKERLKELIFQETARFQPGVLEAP

[10] = target: Tyrosine-protein kinase Fyn (Homo sapiens) (UniProt P06241); experiment: Inhibition of FYN (unknown origin) at 0.5 uM
Tyrosine-protein kinase Fyn (Homo sapiens), sequence (P06241 2-537 limits assumed): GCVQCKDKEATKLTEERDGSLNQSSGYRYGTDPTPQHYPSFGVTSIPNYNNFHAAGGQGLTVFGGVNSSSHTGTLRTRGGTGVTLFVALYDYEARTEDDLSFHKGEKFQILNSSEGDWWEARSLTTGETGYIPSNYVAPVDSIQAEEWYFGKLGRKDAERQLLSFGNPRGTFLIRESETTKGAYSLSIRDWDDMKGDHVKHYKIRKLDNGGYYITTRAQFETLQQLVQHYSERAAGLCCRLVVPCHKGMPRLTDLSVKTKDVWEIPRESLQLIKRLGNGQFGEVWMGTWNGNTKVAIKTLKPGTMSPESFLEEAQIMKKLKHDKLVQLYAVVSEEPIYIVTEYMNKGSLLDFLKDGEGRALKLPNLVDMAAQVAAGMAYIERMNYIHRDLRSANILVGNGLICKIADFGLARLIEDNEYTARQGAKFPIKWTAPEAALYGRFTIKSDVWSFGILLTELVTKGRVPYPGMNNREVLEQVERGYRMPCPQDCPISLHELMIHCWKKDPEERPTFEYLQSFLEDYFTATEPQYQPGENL

[11] = Stability in human plasma at 1 uM incubated for 120 mins by LC-MS/MS analysis; type: ADME, cell-free; conditions: 2 h
[12] = system: Mus musculus; experiment: Effect on spatial working memory in Dp1Yey C57BL/6J mouse model assessed as reduction in time spent in center at 40 mg/kg, po administered 5 days per week for 2 months by Y-maze test; type: functional, organism-based
[13] = system: Mus musculus; experiment: Effect on spatial working memory in Dp1Yey C57BL/6J mouse model assessed as reduction in total distance travelled at 40 mg/kg, po administered 5 days per week for 2 months by Y-maze test; type: functional, organism-based
[14] = system: Mus musculus; experiment: Effect on spatial working memory in Dp1Yey C57BL/6J mouse model assessed as reduction in mean speed at 40 mg/kg, po administered 5 days per week for 2 months by Y-maze test; type: functional, organism-based
[15] = species on record: Homo sapiens; experiment: Inhibition of PI3K (unknown origin) at 0.5 uM

`Oc1ccc(-c2cnc3[nH]cc(-c4ccc(F)cc4)c3c2)cc1O` showed an IC50 [1] of 0.02 µM.
For `Oc1cc(O)c2c(c1)CC(c1ccccc1)NC2` (stereo not given), the IC50 [2] was greater than 20 µM.
Compound `Oc1cc(O)c2c(c1)CC(C1CCCCC1)NC2` (stereo not given) has an IC50 [2] greater than 20 µM.
In the case of `COc1ccc(C(=O)N2Cc3c(cc(OC)cc3OC)CC2C2CCCCC2)cc1` (stereo not given), the IC50 [2] is reported as greater than 20 µM.
Work on `COc1cc2c(c(OC)c1)CNC(c1ccccc1)C2` (stereo not given) yielded an IC50 [2] greater than 20 µM.
Work on `O=C(O[C@@H]1Cc2c(O)cc(O)cc2O[C@@H]1c1cc(O)c(O)c(O)c1)c1cc(O)c(O)c(O)c1` [EPIGALOCATECHIN GALLATE] yielded an IC50 [2] of 0.2 µM.
In the case of `O=C(c1cc(O)c(O)c(O)c1)N1Cc2c(O)cc(O)cc2CC1c1cc(O)c(O)c(O)c1` (stereo not given), the concentration [3] is reported as 38.2 nM, the inhibition [4] is reported as “inactive” and the concentration [5] is reported as 27.6 nM. The inhibition [6] was “inactive”, the inhibition [7] was “Active” and the Activity [8] was “Active”. For the same compound, the inhibition [9] was “inactive”, the inhibition [10] was “Active” and the Stability [11] was “Stable”. For the same compound, the Activity [12] was “inactive”, the Activity [13] was “inactive” and the Activity [14] was “inactive”. The inhibition [15] was “Active”.
Compound `COc1cc2c(c(OC)c1)CNC(C1CCCCC1)C2` (stereo not given) has an IC50 [2] greater than 20 µM.
Compound `O=C(c1ccc(O)cc1)N1Cc2c(O)cc(O)cc2CC1C1CCCCC1` (stereo not given) has an IC50 [2] greater than 20 µM.
In the case of `COc1cc2c(c(OC)c1)CN(C(=O)c1ccccc1)C(c1cc(OC)c(OC)c(OC)c1)C2` (stereo not given), the IC50 [2] is reported as greater than 20 µM.
`O=C(c1ccccc1)N1Cc2c(O)cc(O)cc2CC1C1CCCCC1` (stereo not given) gave an IC50 [2] greater than 20 µM.
For `COc1cc2c(c(OC)c1)CN(C(=O)c1ccccc1)C(C1CCCCC1)C2` (stereo not given), the IC50 [2] was greater than 20 µM.
`COc1cccc(C(=O)N2Cc3c(cc(OC)cc3OC)CC2c2cc(OC)c(OC)c(OC)c2)c1` (stereo not given) showed an IC50 [2] greater than 20 µM.
